According to patent US12667546B2, “Methods for manipulating cell state transitions in cancer” (AGENCY FOR SCIENCE, TECHNOLOGY AND RESEARCH, priority 2018, dated 2026):

What was measured:
[1] = test system: MCF7-Ras; assay: Tumor growth of ex vivo pre-treated MCF7-Ras injected subcutaneously; type: in vivo, NSG mice; conditions: ex vivo treatment before injection
Protocol: (§1) All animal experiments were approved by the Agency for Science Technology and Research Singapore-Biological Resource Centre IACUC (Protocol number 140940). For pre-treated SUM159 and MCF7-Ras cells, 1×10^6 cells were suspended in 100 μl media containing 50% matrigel and injected subcutaneously into both flanks of female NSG mice. The NSG mice were checked for tumor by palpation once a week and tumors were harvested when they reached ˜15 mm in diameter. For treatment in NSG mice, 1×10^5 NAMEC8-Ras cells were suspended in 100 μl media containing 50% matrigel and injected subcutaneously into both flanks of NSG mice. The NSG mice were checked for tumor formation by palpation and when tumors were about 3 mm, mice were randomized into two groups: vehicle (5% DMSO in corn oil) and treatment (Bexarotene, 100 mg/kg/day oral dosing). Tumor size was measured every week using Vernier calipers and mice were sacrificed when tumors reached ˜15 mm or after ˜4 weeks of treatment. For patient-derived cells, 2×10^6 cells were injected subcutaneously per site in NSG mice.

[2] = test system: NAMEC8-SERPINE1prom-Luc cells; assay: Renilla-luciferase (constitutive CMV promoter) readout for cell numbers; type: cell-based, human; conditions: Homo sapiens, 72 h, primary screen; Renilla as readout for cell numbers; relative to DMSO; read-out: % Avr Renilla from DMSO
[3] = test system: SUM159; assay: Tumor growth of ex vivo pre-treated SUM159 injected subcutaneously; type: in vivo, NSG mice; conditions: short-term (14 days) ex vivo treatment before transplantation
Protocol: as §1

[4] = test system: SUM159 PACR cells; assay: Morphology and EMT/lineage markers in SUM159 PACR cells; type: cell-based, human
Protocol: (§2) Cells were rinsed twice in ice-cold PBS. Total RNA was extracted using Trizol (Invitrogen) and column-purified with RNeasy kits (Qiagen). cDNA synthesis was performed with 500 ng of total RNA at 37° C. for 2 h using the SuperScript III First-Strand Synthesis System (Thermo Fisher Scientific), and subsequently diluted 5-fold. mRNA levels were measured with gene-specific primers listed below using the ABI Prism 7900HT Sequence Detection System 2.2 (Applied Biosystems). Results were normalized to GAPDH and analyzed using SDS 2.2 software.

[5] = test system: NAMEC8 and BC2.2; assay: Gene expression of ER target genes; type: cell-based, human
Protocol: as §2

[6] = test system: BC24.1 and BC33.1; assay: EMT and lineage markers in patient-derived ER+, luminal-like tumor cell lines; type: cell-based, human
Protocol: Breast tissue biopsies from cancer patients were obtained from National Cancer Centre Singapore (NCCS) with patients' consent and under an IRB approved protocol (2015/2976). Tissue was digested with 1 mg/ml collagenase IV (Gibco) and 1 mg/ml dispase II (Thermo Fisher Scientific) in F12 media for 2 h while shaking in a 37° C. incubator. Cell suspension was then put through a cell strainer and centrifuged for 10 min at 1500 rpm. Cells were then washed twice and resuspended in media before seeding on irradiated 3T3 feeders as previously described. When confluent, sub-culturing was carried out by first lifting the feeders using 0.15% trypsin for 2 min. […]
as §2
Cells were harvested and scraped from culture dishes in ice-cold PBS. […] Protein concentrations were determined using Coomaisse Blue. […]

[7] = test system: Estrogen response element (ERE)-luciferase reporter in NAMEC8; assay: ERE-luciferase activity assay; type: cell-based, human
Protocol: ERE luciferase construct was kindly provided by Alan Prem Kumar, CSI, Singapore. To measure the ERE-luciferase activity, cells were seeded 24 h before transfection. ERE-luciferase (1 μg) and NSV-Renilla (0.1 μg) were packaged using Lipofectamine 2000 and transfected into NAMEC8. 24 h post-transfection, cells were reseeded into 96 well plates for drug treatment. Firefly and Renilla luciferase activities were measured with the Dual-Glo Luciferase System (Promega) 24 h post-treatment.

[8] = test system: NAMEC8-Ras, BC2.2 and BC22.1 tumors; assay: Xenograft treatment with oral bexarotene; type: in vivo, NSG mice
Excerpt: Primary human breast cancer samples were obtained from the National Cancer Centre Singapore (NCCS) with patients' consent and under an IRB approved protocol (2015/2976). All animal experiments were approved by the Agency for Science Technology and Research Singapore-Biological Resource Centre IACUC (Protocol number 171286). Patient-derived breast tumor fragments (approximately 3×1×1 mm) were inserted bilaterally into the inguinal mammary fat pads of 6-8 week-old NSG female mice for initial establishment of tumors, and subsequently expanded in NSG mice once established. In this study, established tumor fragments of BC2.2 were implanted into cohorts of 6-8 week-old female NSG mice. For BC22.1, 1×10^6 cells were injected subcutaneously into both flanks of NSG mice.
All animal experiments were approved by the Agency for Science Technology and Research Singapore-Biological Resource Centre IACUC (Protocol number 140940). For pre-treated SUM159 and MCF7-Ras cells, 1×10^6 cells were suspended in 100 μl media containing 50% matrigel and injected subcutaneously into both flanks of female NSG mice. The NSG mice were checked for tumor by palpation once a week and tumors were harvested when they reached ˜15 mm in diameter. For treatment in NSG mice, 1×10^5 NAMEC8-Ras cells were suspended in 100 μl media containing 50% matrigel and injected subcutaneously into both flanks of NSG mice. The NSG mice were checked for tumor formation by palpation and when tumors were about 3 mm, mice were randomized into two groups: vehicle (5% DMSO in corn oil) and treatment (Bexarotene, 100 mg/kg/day oral dosing). Tumor size was measured every week using Vernier calipers and mice were sacrificed when tumors reached ˜15 mm or after ˜4 weeks of treatment. For patient-derived cells, 2×10^6 cells were injected subcutaneously per site in NSG mice. […]
The tumor sections were fixed overnight in 4% paraformaldehyde, immersed in 70% ethanol, and sent to the Advanced Molecular Pathlogy Lab, IMCB for paraffinization. […] The fluorescence image analysis and the fluorescence overlay image were obtained with the Axio Vision Rel. […]

Compound: C=C(c1ccc(C(=O)O)cc1)c1cc2c(cc1C)C(C)(C)CCC2(C)C [Bexarotene]
- tumor cell growth [1]: no impact on the tumor cell growth was observed
- viability at 10 µM [2]: 87.5%
- tumorigenic potential [3]: severely crippled their tumorigenic potential for up till seven weeks post-transplantation
- phenotype (morphology, epithelial and luminal markers) [4]: changed from a mesenchymal-like to an epithelial-like phenotype
- expression of ER target genes (ABCA3, NRIP1, TFF1, CREB1) [5]: strongly elevated
- expression of epithelial/mesenchymal or luminal/basal markers [6]: no dramatic change in the expression of the epithelial/mesenchymal or luminal/basal markers
- ERE-luciferase reporter activity [7]: increased
- tumor growth rate and burden ([8]; 100 mg/kg/day oral dosing vs vehicle): significant reductions in tumor growth rate and burden
- retinoid target gene expressions in tumors ([8]; STRA6, CRAPBP2, DHRS3, ANGPTL4, IP6K3, ACSL5): upregulated by at least two-fold
- EMT markers in tumor sections (immunofluorescence) ([8]; tumors from bexarotene-treated mice): expression of E-cadherin, and the loss of fibronectin
